Source: article PMC5735135, “Oxidative rearrangement of (+)-sesamin by CYP92B14 co-generates twin dietary lignans in sesame” (Nature Communications, 2017)

Key:
CYP92B14 [1] = target: T1, CYP92B14 (Sesamum indicum, UniProt A0A2Z5U627); assay: inhibition of (+)-sesamolin and (+)-sesaminol formation; format: cell-based; conditions: substrate (+)-sesamin; also a reaction by-product
T1 construct: full-length ORF expressed in yeast INVSc with sesame CPR1 (GenBank LC209223) as reductase; microsomes or whole yeast cells
T1 sequence (A0A2Z5U627 1-513): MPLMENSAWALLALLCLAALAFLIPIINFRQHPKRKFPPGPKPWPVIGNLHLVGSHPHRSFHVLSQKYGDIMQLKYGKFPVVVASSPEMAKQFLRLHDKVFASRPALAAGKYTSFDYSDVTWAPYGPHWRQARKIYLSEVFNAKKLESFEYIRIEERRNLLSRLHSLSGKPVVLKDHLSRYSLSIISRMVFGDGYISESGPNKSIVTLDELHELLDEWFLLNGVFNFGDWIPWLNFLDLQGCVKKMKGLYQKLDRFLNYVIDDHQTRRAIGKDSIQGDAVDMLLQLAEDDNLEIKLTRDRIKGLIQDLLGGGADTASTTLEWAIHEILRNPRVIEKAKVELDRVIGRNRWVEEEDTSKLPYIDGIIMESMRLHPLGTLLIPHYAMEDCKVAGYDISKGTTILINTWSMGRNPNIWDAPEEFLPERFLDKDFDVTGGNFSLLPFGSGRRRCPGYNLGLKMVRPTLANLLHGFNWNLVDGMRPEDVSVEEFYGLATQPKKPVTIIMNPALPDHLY

CYP81Q1 = target: T2, CYP81Q1 (Sesamum indicum, UniProt Q33DY0); assay: HPLC of products formed by yeast cells ([…] nm); format: cell-based; conditions: CPR1 and CYP92B14 co-expressed, 48 h
T2 construct: full-length ORF expressed in yeast INVSc with sesame CPR1 (and CYP92B14); whole yeast cells
T2 sequence (Q33DY0 1-506): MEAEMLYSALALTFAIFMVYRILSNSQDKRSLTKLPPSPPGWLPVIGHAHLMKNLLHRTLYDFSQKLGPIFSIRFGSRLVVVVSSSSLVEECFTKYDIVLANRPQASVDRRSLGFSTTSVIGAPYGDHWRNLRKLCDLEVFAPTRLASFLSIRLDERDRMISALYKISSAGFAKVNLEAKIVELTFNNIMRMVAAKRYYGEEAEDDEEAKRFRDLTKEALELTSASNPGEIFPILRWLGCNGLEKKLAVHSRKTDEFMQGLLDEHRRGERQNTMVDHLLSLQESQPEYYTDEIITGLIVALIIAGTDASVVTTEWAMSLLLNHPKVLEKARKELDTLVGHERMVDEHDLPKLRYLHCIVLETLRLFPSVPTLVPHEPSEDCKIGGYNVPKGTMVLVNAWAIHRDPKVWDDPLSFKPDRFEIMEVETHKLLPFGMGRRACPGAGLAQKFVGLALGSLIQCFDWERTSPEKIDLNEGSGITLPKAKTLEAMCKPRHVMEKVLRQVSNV

CYP92B14 [2] = target: T1, CYP92B14; assay: HPLC of products formed by yeast microsomes; format: biochemical; conditions: 100 uM (+)-sesamin, 1 mM NADPH, CPR1 co-expressed, 37 °C, 60 min

Compound	inhibition of (+)-sesamolin and (+)-sesaminol formation (CYP92B14 [1])	HPLC of products formed by yeast microsomes (CYP92B14 [2])	further results
OC1OC[C@@H]2[C@@H](c3ccc4c(c3)OCO4)OC[C@H]12 (single isomer, unassigned; (+)) [(+)-samin]	the supplementation of these two compounds clearly inhibited the biosynthetic activity of CYP92B14	–	–
COc1cc([C@H]2OC[C@H]3[C@@H]2CO[C@@H]3c2ccc(O)c(OC)c2)ccc1O [(+)-pinoresinol]	–	–	HPLC of products formed by yeast cells (283 nm) (CYP81Q1): co-expressing CYP81Q1, CYP92B14, and CPR1 converted (+)-pinoresinol to (+)-sesaminol and (+)-sesamolin via (+)-sesamin
c1cc2c(cc1[C@H]1OC[C@H]3[C@@H]1CO[C@@H]3c1ccc3c(c1)OCO3)OCO2 [(+)-sesamin]	–	yeast cells expressing CYP92B14 and CPR1 converted (+)-sesamin to (+)-sesamolin	–
c1cc2c(cc1O[C@H]1OC[C@H]3[C@@H]1CO[C@@H]3c1ccc3c(c1)OCO3)OCO2 [(+)-sesamolin]	–	yeast cells expressing CYP92B14 and CPR1 converted (+)-sesamin to (+)-sesamolin	–
Oc1ccc2c(c1)OCO2 [sesamol]	the supplementation of these two compounds clearly inhibited the biosynthetic activity of CYP92B14	–	–
